Data on three compounds can be found in patent US20170172955A1, “Treatment of Mixed Dyslipidemia” (priority 2015, published 2017).

The subject of data set [1] is STAM model of non-alcoholic steatohepatitis (NASH). The method, then:
Telmisartan (Micardis®) was purchased from Boehringer Ingelheim GmbH (Germany) and dissolved in pure water.
Telmisartan was administered at a dose of 10 mg/kg once daily.
Measurement of whole blood and plasma biochemistry: Eight-hour fasting blood samples were collected from facial vein at 3 days prior to termination.
Eight-hour fasting blood glucose was measured in whole blood using Life Check (EIDIA Co. Ltd., Japan). For plasma biochemistry, eight-hour fasting blood was collected in polypropylene tubes with anticoagulant (Novo-Heparin, Mochida Pharmaceutical, Japan) and centrifuged at 1,000×g for 15 minutes at 4° C. The supernatant was collected and stored at −80° C. until use. Plasma insulin levels were quantified by Ultra Sensitive Mouse Insulin ELISA kit (Morinaga Institute of Biological Science, Inc., Japan).
On the day of termination, non-fasting blood glucose was measured in whole blood using Life Check. For plasma biochemistry, non-fasting blood was collected in polypropylene tubes with anticoagulant (Novo-Heparin) and centrifuged at 1,000×g for 15 minutes at 4° C. The supernatant was collected and stored at −80° C. until use. Plasma ALT, AST, ALP, GGT, BUN, creatinine and total bilirubin levels were measured by FUJI DRI-CHEM 7000 (Fujifilm Corporation, Japan). Plasma ketone body levels were quantified by EnzyChrom™ Ketone Body Assay Kit (BioAssay Systems, USA). […]
Histological analyses: For HE staining, sections were cut from paraffin blocks of liver tissue prefixed in Bouin's solution and stained with Lillie-Mayer's Hematoxylin (Muto Pure Chemicals Co., Ltd., Japan) and eosin solution (Wako Pure Chemical Industries). […] To visualize collagen deposition, Bouin's fixed liver sections were stained using picro-Sirius red solution (Waldeck, Germany). […]
Statistical analyses were performed using Bonferroni Multiple Comparison Test on GraphPad Prism 6 (GraphPad Software Inc., USA). […] Results were expressed as mean±SD.
The viability, clinical signs and behavior were monitored daily. Body weight was recorded before the treatment. […] The animals were sacrificed by exsanguination through direct cardiac puncture under isoflurane anesthesia (Pfizer Inc.) at 9 weeks of age.

The test system of data set [2] is cholesterol and triglyceride synthesis. Description: Inhibition of plasma and hepatic cholesterol and triglyceride synthesis in apoB100/Lp(a) mice. It is filed as in vivo, mouse. How it is done: The apoB100/Lp(a) (cross of mice transgenic for human apoB100 and human apo(a)) mice) were obtained from Charles River. There were 8 animals per treatment group. […] Mice were acclimated for a minimum of 7 days to a reverse 12 hour light/12 hour dark cycle prior to administration of the first dose of test drug or vehicle. […] Test drugs and vehicle were given once daily. Thirty minutes after the eighth dose, 12.5 μCi [^14C] sodium acetate was administered. […] Individual plasma samples were acquired by placing whole blood samples into EDTA loaded centrifuge tubes and centrifuged. Plasma was transferred to new tubes and stored at −20° C. until assayed for [^14C] labeled cholesterol. Liver samples were flash frozen in liquid nitrogen and stored at −80° C. until assayed for [^14C] labeled cholesterol and triglycerides. Assay for plasma [^14C] labeled cholesterol. […] Additionally, 0.025 μCi […] (Perkin Elmer Life Sciences Inc. Boston, Mass.) was added to each sample, and to 2 or 3 spike controls in 7-mL scintillation vials, as an extraction internal standard. […] Samples were vortexed and saponified at 75° C. for 1 hour. After the samples cooled […] [^14C] labeled cholesterol was extracted with 2.5 mL petroleum ether per sample and shaken for 10 minutes, and then centrifuged for 10 minutes at 0° C. […] Each sample was then dissolved in 0.25 mL of 2 parts chloroform to 1 part per methanol by sonication. Five mL scintillant was added to each sample and the spike controls for direct [^3H] and [^14C] […] per minute (DPM) recording using a Packard 2500TR Tri-Carb Liquid Scintillation Analyzer. […] Assay for liver [^14C] labeled cholesterol and triglycerides. Frozen liver samples were kept on dry ice during sample weighing procedures and assay preparations. Each sample was homogenized in a solution of ice-cold methanol;0.5 N acetic acid. […] Samples were then vortexed and centrifuged for 20 minutes at 3000 rpm at room temperature to separate the phases. The lower chloroform layer was transferred to new vials. The remaining upper aqueous phase was extracted in like manner with 15 mL chloroform 2 more times. […] The aqueous phase was discarded and the chloroform phase was washed 2 times in like manner with 15 mL 1 part methanol to 1 part water, discarding the aqueous phase. The chloroform samples were evaporated under nitrogen gas, and resuspended in 600 μL chloroform and 30 μL removed for scintillation counting. Sample volumes were adjusted for corrected percent recovery and a calculated volume to load based on total liver weight. Calculated volumes were spotted onto TLC plates and dried in an 80° C. oven. After the plates had cooled to room temperature, they were developed in 102 mL isooctane:diethyl ether:glacial acetic acid, 75:25:2, respectively. Plates were dried in an 80° C. oven and allowed to cool to room temperature, wrapped in plastic wrap, and exposed to the phosphorimager screen. Imagequant software was used to quantitate cholesterol and triglyceride bands.

Data set [3] relates to plasma fibrinogen. The data set is described as follows: Fibrinogen levels in rats (electro immunoassay). It is filed as in vivo, rat. Conditions: male Sprague-Dawley rats, 100 mg/kg/day oral, 14 days. The method, then: Fifty-Six male Sprague-Dawley rats were obtained from Charles River Laboratories. All animals were allowed normal rat chow (Ralston-Purina) and water ad libitum in temperature-controlled rooms, under a 12-hour light, 12-hour dark cycle beginning with lights on at 6 AM. Rats were distributed to 7 groups of 8 rats per group. […] Control animals received vehicle alone. […] CI-719 is gemfibrozil. […] The plasma fibrinogen plasma levels were determined by electro immunoassay. […] Data are shown in FIG. 12 as mean±SEM of as percent of control fibrinogen levels. *p<0.001, two-sided unpaired t-test, compared to control.

The mark [4] stands for this setting: STAM mice, telmisartan 10 mg/kg PO QD, Day 18, 8 hours of fasting.
[5] abbreviates: STAM mice, telmisartan 10 mg/kg PO QD, termination (Day 21).
Where [6] appears, read: telmisartan 10 mg/kg PO QD, n = 7.
Setting [7] is: 3 mg/kg oral once daily, 8 doses.

In the case of `CCCc1nc2c(C)cc(-c3nc4ccccc4n3C)cc2n1Cc1ccc(-c2ccccc2C(=O)O)cc1` [Telmisartan, reference compound], the “Sirius Red positive area (mean ± SD)” value in data set [1] (STAM mice, telmisartan 10 mg/kg PO QD 6-9 wks) was 0.48 ± 0.09%. Moreover, in data set [1] (STAM mice, telmisartan 10 mg/kg PO QD 6-9 wks, n = 7), the “NAFLD Activity score, NAS (mean ± SD)” value came out at 2.6 ± 1.0. Further, the “mortality during the treatment period” value in data set [1] (STAM mice, telmisartan 10 mg/kg PO QD, before reaching Day 21) is given as “one mouse was found dead”. Further, in data set [1] (setting [4]), the “Fasting blood glucose (mean ± SD)” value is 742 ± 90 mg/dL and the “Plasma insulin (mean ± SD)” value is 0.16 ± 0.04 ng/mL. Moreover, in data set [1] (setting [5]), the “Liver hydroxyl-proline (mean ± SD)” value is 0.91 ± 0.21 μg/mg total protein, the “Liver triglyceride (mean ± SD)” value is recorded as 31.7 ± 6.4 mg/g liver, the “Non-fasting blood glucose (mean ± SD)” value turned out to be 856 ± 62 mg/dL and the “Plasma ALT (mean ± SD)” value is on record as 39 ± 15 U/L. Moreover, in data set [1] (setting [5]), the “Plasma AST (mean ± SD)” value was 121 ± 38 U/L and the “Plasma ketone body (mean ± SD)” value stood at 8.11 ± 3.27 mM. For the same compound, in data set [1] (setting [6]), the “number of mice with Hepatocyte ballooning score 0 (None)” value was determined as 2, the “number of mice with Hepatocyte ballooning score 1 (Few balloon cells)” value is given as 4, the “number of mice with Hepatocyte ballooning score 2 (Many cells/prominent ballooning)” value was determined as 1 and the “number of mice with Lobular inflammation score 0 (No foci)” value is on record as 2. Besides, in data set [1] (setting [6]), the “number of mice with Lobular inflammation score 1 (<2 foci/200x)” value amounted to 4, the “number of mice with Lobular inflammation score 2 (2-4 foci/200x)” value came out at 1, the “number of mice with Steatosis score 0 (<5%)” value is 1 and the “number of mice with Steatosis score 1 (5-33%)” value amounted to 6.

Regarding `CCC(C)(C)C(=O)O[C@H]1C[C@@H](C)C=C2C=C[C@H](C)[C@H](CC[C@@H]3C[C@@H](O)CC(=O)O3)[C@H]21` [Simvastatin, simvastatin, reference compound], in data set [2] (3 mg/kg), the “inhibition of cholesterol synthesis as measured in plasma” value came out at 59% and the “lowering of cholesterol synthesis in liver tissue” value is 82%. In addition, in data set [2] (setting [7]), the “hepatic Cholesterol synthesis ([14C] sodium acetate), % Change from Vehicle” value is reported as −82 ± 8 % and the “hepatic Triglycerides synthesis ([14C] sodium acetate), % Change from Vehicle” value came out at 4.0 ± 15%.

`Cc1ccc(C)c(OCCCC(C)(C)C(=O)O)c1` [Gemfibrozil, gemfibrozil, reference compound]: the “reduction in plasma fibrinogen levels compared with control” value in data set [3] worked out at 31%.
